# Patent US12622890B2, “Use of the active compound in the prevention or treatment of ovarian dysfunction diseases” (INSTITUTE OF BIOPHYSICS, CHINESE ACADEMY OF SCIENCES, priority 2022, dated 2026)
# Legend:
# ovarian tissues = assay: RNA transcription level sequencing of ovarian tissues, differentially expressed genes; format: in vivo, mice; conditions: ovarian tissue RNA sequencing, FC>2, Q<0.05
# Method: Mice were sacrificed after various treatments, and ovarian tissues were taken, snap-frozen in liquid nitrogen, stored at −80° C., and sent to Annoroad for RNA transcription level sequencing. Bioinformatics analysis and mapping were performed on the sequencing results. […] The differential genes of the three treatment groups were intersectioned. […] These differential gene sets were then subjected to Gene Ontology function (GO) enrichment (FC>2, Q<0.05) (FIG. 16) and signaling pathway (KEGG) analysis mapping (FIG. 17), respectively.
# POI mice [1] = assay: Serum FSH level in POI mice; format: in vivo; conditions: for FSH: serum, after 12 days 100 mg/kg/d oral
# Source text: (§1) Biomarkers mentioned herein, such as follicle stimulating hormone (FSH), estrogen (e.g., E2), and superoxide dismutase (SOD), malondialdehyde (MDA), relative reactive oxygen species (ROS), and lactate dehydrogenase (LDH), etc., can be detected using methods commonly known in the field. Detection methods typically cover methods that quantify the level of a biomarker in a sample (quantitative methods). Which of the following methods are suitable for qualitative and/or quantitative detection of biomarkers is generally known to those skilled in the field. Samples can be conveniently measured, for example for proteins using immunoassays such as ELISA, RIA, etc., which are commercially available.
# (§2) After 12 days of administration, half of the mice in each group were sacrificed, and their blood was collected and kept still. The serum was separated after centrifugation at 4500 rpm and stored in a refrigerator at −80° C. for future use to measure levels of follicle stimulating hormone, estrogen, and the indexes of oxidative stress such as superoxide dismutase (SOD) and malondial dehyde (MDA).
# as §2, with “kept in” for “kept”, “levals” for “levels”, “malondialdehyde” for “malondial dehyde”
# • 1. Hormone levels in mice blood of Example 1 are measured in this embodiment.
# POI mice [2] = assay: Serum superoxide dismutase (SOD) level, oxidative stress; format: in vivo
# Source text: as §1, §2
# as §2, with “kept in” for “kept”, “levals” for “levels”, “malondialdehyde” for “malondial dehyde”
# (§3) The oxidative stress hypothesis believes that the reduction of antioxidant components in the body leads to the weakening of the ability to remove free radicals, which leads to oxidative damage of biological macromolecules, and the imbalance of cellular oxidative and antioxidant functions, which leads to oxidative stress, and then leads to disease and aging. Oxygen free radicals act on unsaturated fatty acids of lipids to generate lipid peroxides, including malondialdehyde (MDA) and so on. The antioxidant defense system of scavenging free radicals includes superoxide dismutase (SOD) and so on. Recently, oxidative stress has been reported to be associated with ovarian aging and POI in primates. Therefore, this embodiment examined the effects of DMF, HDCA, and DMF+HDCA on oxidative stress in mice with premature ovarian failure, and the results are shown in Table 5, FIGS. 9 to 12.
# POI model mice = assay: Estrous cycle observation by vaginal smear cytology in POI model mice; format: in vivo
# Method: Cytological observation of vaginal smear was performed daily.
# The vagina of mice was exposed, and about 30 μl of normal saline was dripped into the vagina, gently aspirated onto the slide, and observed under the microscope. Staining was performed when necessary, fixed with 95% ethanol for 10 minutes, stained with hematoxylin in aqueous solution for 5-8 minutes, washed with running water for color separation, and then stained with eosin for 3 minutes. After drying. the slices were sealed with neutral gum.
# The vagina of mice was exposed, and about 30 μl of normal saline was dripped into the vagina, gently aspirated onto the slide, and observed under the microscope. Staining was performed when necessary, stained with hematoxylin in aqueous solution for several minutes after drying, washed with running water for color separation, and then stained with alchhol eosin for several seconds. The slices were sealed with neutral gum.
# During the estrous cycle, a series of histological and physiological changes occur in the reproductive and endocrine systems of mice. According to these changes, the estrous cycle can be divided into proestrous (P), estrous (E), metestrum (M) and diestrum (D). • 1. Observation of estrous cycle in mice of Example 1
# After modeling and treatment, there were 6 mice left in the normal saline group, 6 mice left in the sodium fumarate treatment group, 7 mice left in the hyodeoxycholic acid group, and 7 mice left in the sodium fumarate and hyodeoxycholic acid combination group. […] The estrous cycle was divided into four periods (P: proestrous; E: estrous period; M: metestrum; D: diestrum) for vaginal smear cytological observation, the results are shown in FIG. 3.
# The estrous cycle of mice was plotted according to the cytological results of vaginal smears observed for 12 consecutive days, and the results are shown in FIG. 4. The estrous cycle of mice is about 4 to 5 days, which is divided into four periods alternately. […] The estrous cycle of 4 mice was recovered in sodium fumarate treatment group. The estrous cycle of 3 mice was recovered in HDCA group. The estrous cycle of 6 mice was recovered in group treated with SF and HDCA.
# POI mice [3] = assay: Serum relative reactive oxygen species (ROS) level; format: in vivo
# Source text: as §1, §3
# [4] = Example 1, during drug administration, FIG. 4B
smiles,measurement,setting,value
"C[C@H](CCC(=O)O)[C@H]1CC[C@H]2[C@@H]3C[C@H](O)[C@@H]4C[C@H](O)CC[C@]4(C)[C@H]3CC[C@]12C [HDCA, hyodeoxycholic acid, reference compound]",Number of genes down-regulated compared with the control group,ovarian tissues,4749 genes
same,Number of genes up-regulated compared with the control group,ovarian tissues,1898 genes
same,Serum FSH level compared with the normal saline group,"POI mice [1]; Example 1, FIG. 6",decreasing trend
same,Serum FSH level compared with the normal saline group,"POI mice [1]; Example 2, FIG. 8, not statistically significant",certain decreasing trend
same,FSH,POI mice [1]; Example 1 POI mice,4.85 ± 2.34 mIU/mL
same,FSH,POI mice [1]; Example 2 POI mice,1.65 ± 0.76 mIU/mL
same,Activity of SOD compared with the normal saline group,"POI mice [2]; FIG. 9, difference not significant",increased
same,SOD,"POI mice [2]; serum, POI mice after treatment",14.59 ± 5.65 U/mL
same,Effect on mice with premature ovarian failure (conclusion from estrous cycle),POI model mice; Example 1,preventive and therapeutic effects
same,Average rate of diestrum (D) in estrous cycle,POI model mice; [4],39.29%
same,Average rate of estrous stage (E) in estrous cycle,POI model mice; [4],22.62%
same,Average rate of metestrum (M) in estrous cycle,POI model mice; [4],14.29%
same,Average rate of proestrous (P) in estrous cycle,POI model mice; [4],23.81%
same,Number of mice with estrous cycle recovered,"POI model mice; Example 1, 12 days observation, 6 SF, 7 HDCA, 7 SF and HDCA mice left",3 mice
same,ROS levels compared with the normal saline group,POI mice [3]; FIG. 11,significantly reduced
same,ROS,"POI mice [3]; relative ROS level in serum, POI mice after treatment",4.589 ± 0.599
